Reference: ChEMBL document CHEMBL5608200, “Design, synthesis, and evaluation of antitumor activity of 2-arylmethoxy-4-(2-fluoromethyl-biphenyl-3-ylmethoxy) benzylamine derivatives as PD-1/PD-l1 inhibitors” (Eur J Med Chem, 2024)
Activity calls are given as the source filed them. The calls are words filed in the database; no cut-off is given here.

How the values were obtained:
[1] = Cytotoxicity against human PBMCs at 1 to 4 uM by CCK-8 assay; format: toxicity, cell-based; conditions: pbmc, dose 1-4 µM
[2] = system: MC-38; experiment: Antiproliferative activity against mouse MC38 cells expressing hPD-L1 incubated for 48 hrs by CCK8 assay; conditions: MC-38, 48 h
[3] = system: HCC827; experiment: Induction of T-cell mediated apoptosis in human HCC827 cells cocultured with PMA-stimulated Jurkat T cells assessed as mortality rate at 4 uM incubated for 48 hrs by CCK-8 assay; format: functional
[4] = system: HCC827; experiment: Induction of T-cell mediated apoptosis in human HCC827 cells cocultured with PMA-stimulated Jurkat T cells assessed as mortality rate at 32 uM incubated for 48 hrs by CCK-8 assay; format: functional
[5] = system: MDA-MB-231; experiment: Induction of T-cell mediated apoptosis in human MDA-MB-231 cells cocultured with PMA-stimulated Jurkat T cells assessed as mortality rate at 4 uM incubated for 48 hrs by CCK-8 assay; format: functional
[6] = system: MDA-MB-231; experiment: Induction of T-cell mediated apoptosis in human MDA-MB-231 cells cocultured with PMA-stimulated Jurkat T cells assessed as mortality rate at 16 uM incubated for 48 hrs by CCK-8 assay; format: functional
[7] = system: MDA-MB-231; experiment: Induction of T-cell mediated apoptosis in human MDA-MB-231 cells cocultured with PMA-stimulated Jurkat T cells assessed as mortality rate at 32 uM incubated for 48 hrs by CCK-8 assay; format: functional
[8] = system: HCC827; experiment: Cytotoxicity against human HCC827 cells at 1 to 32 uM incubated for 48 hrs by CCK-8 assay; format: functional, cell-based; conditions: dose 1-32 µM
[9] = system: A549; experiment: Cytotoxicity against human A549 cells at 1 to 32 uM incubated for 48 hrs by CCK-8 assay; format: functional, cell-based; conditions: dose 1-32 µM
[10] = system: Jurkat; experiment: Cytotoxicity against human Jurkat T cells at 1 to 32 uM incubated for 48 hrs by CCK-8 assay; format: functional, cell-based; conditions: dose 1-32 µM
[11] = AUC(0 to infinity) in Sprague-Dawley rat at 10 mg/kg, iv measured upto 48 hrs by LC-MS/MS analysis; format: ADME, organism-based; conditions: in vivo
[12] = Cmax in Sprague-Dawley rat at 10 mg/kg, iv measured upto 48 hrs by LC-MS/MS analysis; format: ADME, organism-based; conditions: in vivo
[13] = Tmax in Sprague-Dawley rat at 10 mg/kg, iv measured upto 48 hrs by LC-MS/MS analysis; format: ADME, organism-based; conditions: in vivo
[14] = Half-life in Sprague-Dawley rat at 10 mg/kg, iv measured upto 48 hrs by LC-MS/MS analysis; format: ADME, organism-based; conditions: in vivo
[15] = Apparent volume of distribution in Sprague-Dawley rat at 10 mg/kg, iv measured upto 48 hrs by LC-MS/MS analysis; format: ADME, organism-based; conditions: in vivo
[16] = Clearance in Sprague-Dawley rat at 10 mg/kg, iv measured upto 48 hrs by LC-MS/MS analysis; format: ADME, organism-based; conditions: in vivo
[17] = AUC(0 to t) in Sprague-Dawley rat at 50 mg/kg, IG measured upto 48 hrs by LC-MS/MS analysis; format: ADME, organism-based; conditions: in vivo, po
[18] = Cmax in Sprague-Dawley rat at 50 mg/kg, IG measured upto 48 hrs by LC-MS/MS analysis; format: ADME, organism-based; conditions: in vivo, po
[19] = Tmax in Sprague-Dawley rat at 50 mg/kg, IG measured upto 48 hrs by LC-MS/MS analysis; format: ADME, organism-based; conditions: in vivo, po
[20] = Apparent volume of distribution in Sprague-Dawley rat at 50 mg/kg, IG measured upto 48 hrs by LC-MS/MS analysis; format: ADME, organism-based; conditions: in vivo, po
[21] = Clearance in Sprague-Dawley rat at 50 mg/kg, IG measured upto 48 hrs by LC-MS/MS analysis; format: ADME, organism-based; conditions: in vivo, po
[22] = system: MC-38; experiment: Antitumor activity against mouse MC38 cells expressing hPD-L1 implanted in PD-1/PD-L1 humanized C57BL/6 mouse assessed as tumor growth inhibition at 50 mg/kg, IG; format: functional; conditions: MC-38, po, read-out: TGI
[23] = Toxicity in PD-1/PD-L1 humanized C57BL/6 mouse implanted with mouse MC38 cells expressing hPD-L1 assessed as animal death at 50 mg/kg, IG QD administered for 15 days; format: organism-based, MC-38; conditions: in vivo, po, 360 h, time 15 day
[24] = Toxicity in PD-1/PD-L1 humanized C57BL/6 mouse implanted with mouse MC38 cells expressing hPD-L1 assessed as weight loss at 50 mg/kg, IG QD administered for 15 days; format: organism-based, MC-38; conditions: in vivo, po, 360 h, time 15 day
[25] = system: MC-38; experiment: Antitumor activity against mouse MC38 cells expressing hPD-L1 implanted in PD-1/PD-L1 humanized C57BL/6 mouse assessed as increase in proportion of CD3+/CD8+ T cells at 50 mg/kg, IG QD administered for 15 days by flow cytometry analysis; format: functional, organism-based; conditions: time 15.0 day
[26] = system: MC-38; experiment: Antitumor activity against mouse MC38 cells expressing hPD-L1 implanted in PD-1/PD-L1 humanized C57BL/6 mouse assessed as increase in ratio of CD3+/CD8+ to CD3+/CD4+ cells at 50 mg/kg, IG QD administered for 15 days by flow cytometry analysis; format: functional, organism-based; conditions: time 15.0 day
[27] = system: MC-38; experiment: Antitumor activity against mouse MC38 cells expressing hPD-L1 implanted in PD-1/PD-L1 humanized C57BL/6 mouse assessed as upregulation of CXCR3 mRNA expression at 50 mg/kg, IG QD administered for 15 days by RT-PCR analysis; format: functional, organism-based; conditions: time 15.0 day
[28] = system: MC-38; experiment: Antitumor activity against mouse MC38 cells expressing hPD-L1 implanted in PD-1/PD-L1 humanized C57BL/6 mouse assessed as downregulation of PD-L1 mRNA expression at 50 mg/kg, IG QD administered for 15 days by RT-PCR analysis; format: functional, organism-based; conditions: time 15.0 day
[29] = Toxicity in PD-1/PD-L1 humanized C57BL/6 mouse implanted with mouse MC38 cells expressing hPD-L1 assessed as change in heart morphology at 50 mg/kg, IG QD administered for 15 days by H and E staining based inverted fluorescent microscopic assay; format: organism-based, MC-38; conditions: in vivo, po, 360 h, time 15 day
[30] = Toxicity in PD-1/PD-L1 humanized C57BL/6 mouse implanted with mouse MC38 cells expressing hPD-L1 assessed as change in liver morphology at 50 mg/kg, IG QD administered for 15 days by H and E staining based inverted fluorescent microscopic assay; format: organism-based, MC-38; conditions: in vivo, po, 360 h, time 15 day
[31] = Toxicity in PD-1/PD-L1 humanized C57BL/6 mouse implanted with mouse MC38 cells expressing hPD-L1 assessed as change in spleen morphology at 50 mg/kg, IG QD administered for 15 days by H and E staining based inverted fluorescent microscopic assay; format: organism-based, MC-38; conditions: in vivo, po, 360 h, time 15 day
[32] = Toxicity in PD-1/PD-L1 humanized C57BL/6 mouse implanted with mouse MC38 cells expressing hPD-L1 assessed as change in lung morphology at 50 mg/kg, IG QD administered for 15 days by H and E staining based inverted fluorescent microscopic assay; format: organism-based, MC-38; conditions: in vivo, po, 360 h, time 15 day
[33] = Toxicity in PD-1/PD-L1 humanized C57BL/6 mouse implanted with mouse MC38 cells expressing hPD-L1 assessed as change in kidney morphology at 50 mg/kg, IG QD administered for 15 days by H and E staining based inverted fluorescent microscopic assay; format: organism-based, MC-38; conditions: in vivo, po, 360 h, time 15 day
[34] = Toxicity in PD-1/PD-L1 humanized C57BL/6 mouse implanted with mouse MC38 cells expressing hPD-L1 assessed as hepatotoxicity at 50 mg/kg, IG QD administered for 15 days; format: organism-based, MC-38; conditions: in vivo, po, 360 h, time 15 day

N#Cc1cncc(COc2cc(OCc3cccc(-c4ccc5c(c4)OCCO5)c3C(F)F)ccc2CNCCO)c1
Activity [1]: Non-Toxic | IC50 [2]: > 8 µM | Activity [3]: 40.4% | Activity [4]: 71.2% | Activity [5]: 40.6% | Activity [6]: 57.1% | Activity [7]: 64% | Activity [8]: inactive | Activity [9]: inactive | Activity [10]: inactive | AUC(0-inf) [11]: 13900 ng·h/mL | Cmax [12]: 4560 ng/mL | Tmax [13]: 7.8 min | t1/2 [14]: 2.47 h | Vz [15]: 10.1 L/kg | CL [16]: 12 mL/min/kg | AUC(0-t) at 48 h [17]: 41800 ng·h/mL | Cmax [18]: 13500 ng/mL | Tmax [19]: 2.38 h | Vz [20]: 31.76 L/kg | CL [21]: 19.8 mL/min/kg | inhibition in vivo at 50 mg/kg [22]: 62.4% | Activity [23]: Non-Toxic | Activity [24]: Non-Toxic | Activity [25]: Active | Activity [26]: Active | Activity [27]: Active | Activity [28]: Active | Activity [29]: Non-Toxic | Activity [30]: Non-Toxic | Activity [31]: Non-Toxic | Activity [32]: Non-Toxic | Activity [33]: Non-Toxic | Activity [34]: Non-Toxic
